Experimental data: article PMC6688997 (Nature Communications, 2019)
Where two headings read alike, the source gives them in different places.

Legend:
BUB1/BUB3 = BUB1/BUB3 (Homo sapiens, UniProt O43683); test: Kinase assay, ATP Km; format: biochemical
TYK2 = TYK2 (Homo sapiens, UniProt P29597); test: Kinase assay, ATP Km; format: biochemical
[1] = PK profile, plasma concentration by LC-MS/MS; format: in vivo, nude mice; conditions: single administration of 100 mg/kg
Protocol: PK profile of DS-6051b as a free base in nude mice The indicated dose of DS-6051b as a free base was administered to nude mice. Blood samples were collected at 2, 6 and 24 h post-dosing and centrifuged to separate the supernatant as plasma. […] Results are indicated as mean ± SD of the concentration of each group (N = 3).

TSSK2 = target: T1, TSSK2 (Homo sapiens, UniProt Q96PF2); test: Kinase assay, ATP Km; format: biochemical
T1 construct: purchased Carna Biosciences
T1 sequence (Q96PF2 whole entry): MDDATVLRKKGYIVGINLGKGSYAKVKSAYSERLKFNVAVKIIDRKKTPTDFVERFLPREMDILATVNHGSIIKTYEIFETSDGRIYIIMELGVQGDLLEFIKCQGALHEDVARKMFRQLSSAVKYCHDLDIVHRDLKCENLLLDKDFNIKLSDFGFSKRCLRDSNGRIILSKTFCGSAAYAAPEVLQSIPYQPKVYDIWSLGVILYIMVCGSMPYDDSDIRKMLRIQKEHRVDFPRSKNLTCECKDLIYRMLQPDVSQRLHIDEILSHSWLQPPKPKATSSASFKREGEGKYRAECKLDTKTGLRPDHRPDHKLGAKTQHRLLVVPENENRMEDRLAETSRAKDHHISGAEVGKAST

EPHA2 = EPHA2 (Homo sapiens, UniProt P29317); test: Kinase assay, ATP Km; format: biochemical
Chain of EPHA2 (P29317 24-976): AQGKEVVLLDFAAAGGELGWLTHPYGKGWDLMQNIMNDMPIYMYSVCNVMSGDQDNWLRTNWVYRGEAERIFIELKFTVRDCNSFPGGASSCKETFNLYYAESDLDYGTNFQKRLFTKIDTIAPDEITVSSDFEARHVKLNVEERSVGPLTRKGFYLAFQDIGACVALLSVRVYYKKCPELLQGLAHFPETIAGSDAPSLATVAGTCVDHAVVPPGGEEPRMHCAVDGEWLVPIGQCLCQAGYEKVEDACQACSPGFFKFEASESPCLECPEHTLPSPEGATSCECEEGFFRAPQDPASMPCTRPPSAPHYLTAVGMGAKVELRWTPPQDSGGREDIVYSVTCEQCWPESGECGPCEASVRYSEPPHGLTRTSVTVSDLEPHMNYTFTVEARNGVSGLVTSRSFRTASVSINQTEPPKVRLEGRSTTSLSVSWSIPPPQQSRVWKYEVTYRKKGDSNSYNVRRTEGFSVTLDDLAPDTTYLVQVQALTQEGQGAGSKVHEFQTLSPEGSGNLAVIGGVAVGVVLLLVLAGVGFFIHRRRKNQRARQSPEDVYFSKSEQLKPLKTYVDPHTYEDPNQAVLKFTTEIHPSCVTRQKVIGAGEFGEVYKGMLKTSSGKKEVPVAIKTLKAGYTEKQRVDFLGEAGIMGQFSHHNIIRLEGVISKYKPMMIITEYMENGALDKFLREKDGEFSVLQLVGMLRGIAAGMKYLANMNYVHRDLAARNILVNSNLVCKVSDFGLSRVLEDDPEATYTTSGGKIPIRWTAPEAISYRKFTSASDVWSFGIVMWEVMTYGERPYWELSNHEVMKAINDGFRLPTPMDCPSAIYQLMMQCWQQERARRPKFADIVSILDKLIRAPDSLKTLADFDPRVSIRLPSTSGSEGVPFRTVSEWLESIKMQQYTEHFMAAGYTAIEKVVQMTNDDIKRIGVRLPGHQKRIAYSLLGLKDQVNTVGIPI

MNK1 = target: T2, MNK1 (Homo sapiens, UniProt Q9BUB5); test: Kinase assay, ATP Km; format: biochemical
T2 construct: purchased Carna Biosciences

[2] = system: Ba/F3-CD74-ROS1-WT xenograft; format: in vivo, mouse; conditions: for Tumor volume (average / SE): ROS1-WT xenograft
AKT2 = AKT2 (Homo sapiens, UniProt P31751); test: Kinase assay, ATP Km; format: biochemical
MSK1 = MSK1 (Homo sapiens, UniProt O75582); test: Kinase assay, ATP Km; format: biochemical
HER2 = HER2 (Homo sapiens, UniProt P04626); test: Kinase assay, ATP Km; format: biochemical
DDR2 = target: T3, DDR2 (Homo sapiens, UniProt Q16832); test: Kinase assay, ATP Km; format: biochemical
T3 sequence (Q16832 22-855): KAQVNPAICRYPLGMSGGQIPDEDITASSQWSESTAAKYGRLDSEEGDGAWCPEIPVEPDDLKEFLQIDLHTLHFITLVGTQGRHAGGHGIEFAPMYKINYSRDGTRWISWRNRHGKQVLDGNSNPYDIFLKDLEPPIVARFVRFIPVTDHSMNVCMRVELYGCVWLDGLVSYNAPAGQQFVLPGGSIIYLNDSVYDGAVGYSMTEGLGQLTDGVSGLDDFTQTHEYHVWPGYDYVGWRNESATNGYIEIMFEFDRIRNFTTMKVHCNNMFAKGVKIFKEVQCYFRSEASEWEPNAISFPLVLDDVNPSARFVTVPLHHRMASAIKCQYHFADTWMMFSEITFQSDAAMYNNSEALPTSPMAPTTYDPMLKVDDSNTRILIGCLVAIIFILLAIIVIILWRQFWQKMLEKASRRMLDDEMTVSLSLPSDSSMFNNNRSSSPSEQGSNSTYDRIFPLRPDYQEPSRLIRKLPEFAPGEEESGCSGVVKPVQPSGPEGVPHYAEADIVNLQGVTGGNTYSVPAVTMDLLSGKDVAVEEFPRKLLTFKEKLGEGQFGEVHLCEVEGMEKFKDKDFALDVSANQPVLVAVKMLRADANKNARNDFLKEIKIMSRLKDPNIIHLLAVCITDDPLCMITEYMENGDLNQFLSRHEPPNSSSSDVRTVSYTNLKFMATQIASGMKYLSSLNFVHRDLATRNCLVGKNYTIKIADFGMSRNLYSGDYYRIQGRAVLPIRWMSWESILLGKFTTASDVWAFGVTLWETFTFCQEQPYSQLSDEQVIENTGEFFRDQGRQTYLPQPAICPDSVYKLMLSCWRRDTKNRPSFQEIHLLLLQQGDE

MNK2 = target: T4, MNK2 (Homo sapiens, UniProt Q9HBH9); test: Kinase assay, ATP Km; format: biochemical
T4 construct: purchased Carna Biosciences
T4 sequence (Q9HBH9 whole entry): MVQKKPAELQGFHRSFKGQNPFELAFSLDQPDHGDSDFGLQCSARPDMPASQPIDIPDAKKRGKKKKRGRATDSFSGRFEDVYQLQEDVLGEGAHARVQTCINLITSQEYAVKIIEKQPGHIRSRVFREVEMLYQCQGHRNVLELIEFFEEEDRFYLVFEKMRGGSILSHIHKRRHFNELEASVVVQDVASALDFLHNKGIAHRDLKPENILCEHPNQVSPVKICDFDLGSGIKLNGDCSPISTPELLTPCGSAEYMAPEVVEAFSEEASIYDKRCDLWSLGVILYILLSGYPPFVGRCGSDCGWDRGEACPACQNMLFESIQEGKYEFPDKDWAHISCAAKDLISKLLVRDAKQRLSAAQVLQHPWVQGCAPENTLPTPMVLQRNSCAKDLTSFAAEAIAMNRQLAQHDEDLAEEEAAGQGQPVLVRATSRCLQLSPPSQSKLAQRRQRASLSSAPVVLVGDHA

[3] = system: Ba/F3 TPM3-NTRK1 D679G cells; test: CellTiter-Glo cell viability assay; format: cell-based, murine; conditions: Mus musculus, BaF3, 72 h
CSK = CSK (Homo sapiens, UniProt P41240); test: Kinase assay, ATP Km; format: biochemical
CK1γ1 = CK1γ1 (Homo sapiens, UniProt Q9HCP0); test: Kinase assay, ATP Km; format: biochemical
FMS = target: T5, FMS (Homo sapiens, UniProt P07333); test: Kinase assay, 1 mM ATP; format: biochemical
T5 construct: purchased Carna Biosciences
T5 sequence (P07333 20-972): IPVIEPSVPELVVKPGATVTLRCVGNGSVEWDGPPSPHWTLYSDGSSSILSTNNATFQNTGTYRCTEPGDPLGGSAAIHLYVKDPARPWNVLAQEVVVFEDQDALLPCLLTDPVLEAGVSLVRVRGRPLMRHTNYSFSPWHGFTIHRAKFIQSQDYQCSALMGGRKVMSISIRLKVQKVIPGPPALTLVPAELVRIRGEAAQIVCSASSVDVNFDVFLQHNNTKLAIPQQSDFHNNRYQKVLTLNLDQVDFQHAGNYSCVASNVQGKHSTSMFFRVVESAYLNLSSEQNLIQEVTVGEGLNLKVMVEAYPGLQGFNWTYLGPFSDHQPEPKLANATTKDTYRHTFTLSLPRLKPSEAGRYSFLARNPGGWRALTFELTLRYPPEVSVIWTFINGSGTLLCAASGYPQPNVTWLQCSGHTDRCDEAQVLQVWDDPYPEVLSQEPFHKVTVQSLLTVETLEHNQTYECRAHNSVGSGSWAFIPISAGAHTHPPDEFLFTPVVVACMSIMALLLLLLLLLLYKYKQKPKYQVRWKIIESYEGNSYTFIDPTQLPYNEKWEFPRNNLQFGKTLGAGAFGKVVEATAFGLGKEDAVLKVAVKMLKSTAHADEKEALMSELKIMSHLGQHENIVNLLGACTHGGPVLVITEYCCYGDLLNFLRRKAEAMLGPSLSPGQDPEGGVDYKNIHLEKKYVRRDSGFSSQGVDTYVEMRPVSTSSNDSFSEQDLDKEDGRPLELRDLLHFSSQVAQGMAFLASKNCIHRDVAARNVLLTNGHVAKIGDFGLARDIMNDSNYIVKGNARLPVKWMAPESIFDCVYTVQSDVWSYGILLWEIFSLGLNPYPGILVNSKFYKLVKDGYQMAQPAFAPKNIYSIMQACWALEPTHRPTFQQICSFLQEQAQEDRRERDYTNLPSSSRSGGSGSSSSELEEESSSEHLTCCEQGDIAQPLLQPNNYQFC

RON = target: T6, RON (Homo sapiens, UniProt Q04912); test: Kinase assay, ATP Km; format: biochemical
T6 construct: purchased Carna Biosciences

PKCα = PKCα (Homo sapiens, UniProt P17252); test: Kinase assay, ATP Km; format: biochemical
MAPKAPK2 = target: T7, MAPKAPK2 (Homo sapiens, UniProt P49137); test: Kinase assay, ATP Km; format: biochemical
T7 construct: purchased Carna Biosciences

EPHA5 = EPHA5 (Homo sapiens, UniProt P54756); test: Kinase assay, ATP Km; format: biochemical
Chain of EPHA5 (P54756 25-1037): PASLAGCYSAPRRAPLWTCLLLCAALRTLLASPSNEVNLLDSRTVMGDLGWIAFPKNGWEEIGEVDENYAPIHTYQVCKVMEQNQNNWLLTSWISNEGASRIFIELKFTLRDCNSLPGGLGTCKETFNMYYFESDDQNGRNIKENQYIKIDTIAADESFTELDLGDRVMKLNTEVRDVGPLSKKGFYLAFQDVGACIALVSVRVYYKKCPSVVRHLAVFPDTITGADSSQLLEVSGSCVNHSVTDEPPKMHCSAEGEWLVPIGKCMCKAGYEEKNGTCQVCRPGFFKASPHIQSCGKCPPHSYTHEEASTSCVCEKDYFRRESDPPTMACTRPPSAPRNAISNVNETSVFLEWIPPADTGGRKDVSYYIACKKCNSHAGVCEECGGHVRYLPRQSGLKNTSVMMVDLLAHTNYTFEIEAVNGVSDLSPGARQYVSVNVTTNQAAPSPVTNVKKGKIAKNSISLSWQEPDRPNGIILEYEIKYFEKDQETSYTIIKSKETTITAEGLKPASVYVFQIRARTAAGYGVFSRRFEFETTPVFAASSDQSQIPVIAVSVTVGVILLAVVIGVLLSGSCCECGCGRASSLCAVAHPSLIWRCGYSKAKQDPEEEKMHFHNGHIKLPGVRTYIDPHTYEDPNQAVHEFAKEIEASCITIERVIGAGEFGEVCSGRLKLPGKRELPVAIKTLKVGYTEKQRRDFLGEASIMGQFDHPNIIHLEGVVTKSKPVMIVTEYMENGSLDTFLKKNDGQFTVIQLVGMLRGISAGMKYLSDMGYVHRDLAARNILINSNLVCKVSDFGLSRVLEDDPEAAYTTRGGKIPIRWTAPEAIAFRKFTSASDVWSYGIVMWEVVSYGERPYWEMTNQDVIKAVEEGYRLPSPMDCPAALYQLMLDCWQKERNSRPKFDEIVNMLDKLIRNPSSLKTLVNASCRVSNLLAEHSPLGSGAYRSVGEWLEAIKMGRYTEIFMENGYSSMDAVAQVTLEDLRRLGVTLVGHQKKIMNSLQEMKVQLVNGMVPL

PASK = target: T8, PASK (Homo sapiens, UniProt Q96RG2); test: Kinase assay, ATP Km; format: biochemical
T8 construct: purchased Carna Biosciences

Erk1 = Erk1 (Homo sapiens, UniProt P27361); test: Kinase assay, ATP Km; format: biochemical
EPHB3 = EPHB3 (Homo sapiens, UniProt P54753); test: Kinase assay, ATP Km; format: biochemical
EPHB2 = EPHB2 (Homo sapiens, UniProt P29323); test: Kinase assay, ATP Km; format: biochemical
PGK = PGK (Homo sapiens, UniProt Q13976); test: Kinase assay, ATP Km; format: biochemical
AurA = AurA (Homo sapiens, UniProt O14965); test: Kinase assay, ATP Km; format: biochemical
Chain of AurA (O14965 whole entry): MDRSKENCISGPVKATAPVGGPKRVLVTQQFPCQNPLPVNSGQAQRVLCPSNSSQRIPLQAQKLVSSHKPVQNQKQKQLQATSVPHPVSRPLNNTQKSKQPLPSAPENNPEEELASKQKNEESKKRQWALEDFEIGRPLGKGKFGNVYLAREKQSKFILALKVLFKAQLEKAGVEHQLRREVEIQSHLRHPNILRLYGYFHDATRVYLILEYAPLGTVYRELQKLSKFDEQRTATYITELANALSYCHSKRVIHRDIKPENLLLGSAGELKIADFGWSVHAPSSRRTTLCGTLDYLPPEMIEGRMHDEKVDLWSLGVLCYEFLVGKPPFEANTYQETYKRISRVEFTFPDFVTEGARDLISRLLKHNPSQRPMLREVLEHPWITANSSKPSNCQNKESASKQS

PKCι = PKCι (Homo sapiens, UniProt P41743); test: Kinase assay, ATP Km; format: biochemical
Chain of PKCι (P41743 whole entry): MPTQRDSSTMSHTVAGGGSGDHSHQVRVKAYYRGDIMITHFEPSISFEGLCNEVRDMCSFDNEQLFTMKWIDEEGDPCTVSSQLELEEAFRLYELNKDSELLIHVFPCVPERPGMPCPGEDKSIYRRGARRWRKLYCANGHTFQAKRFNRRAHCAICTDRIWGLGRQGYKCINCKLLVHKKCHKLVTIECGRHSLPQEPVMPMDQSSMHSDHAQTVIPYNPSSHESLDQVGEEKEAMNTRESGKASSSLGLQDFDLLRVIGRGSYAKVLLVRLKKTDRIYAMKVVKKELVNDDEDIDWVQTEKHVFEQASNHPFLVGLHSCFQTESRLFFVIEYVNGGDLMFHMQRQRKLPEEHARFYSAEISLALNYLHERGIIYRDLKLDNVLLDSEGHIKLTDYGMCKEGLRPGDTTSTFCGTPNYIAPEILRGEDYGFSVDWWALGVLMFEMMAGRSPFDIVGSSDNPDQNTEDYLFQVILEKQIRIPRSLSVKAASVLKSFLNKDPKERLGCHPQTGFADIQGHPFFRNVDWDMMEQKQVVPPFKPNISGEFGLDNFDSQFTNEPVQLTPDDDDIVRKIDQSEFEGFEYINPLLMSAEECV

BRK = target: T9, BRK (Homo sapiens, UniProt Q13882); test: Kinase assay, ATP Km; format: biochemical
T9 construct: purchased Carna Biosciences

C[C@@H](N)COc1ccc(-c2cnc3ccc(N[C@H](C)c4cccc(F)c4)nn23)cc1.O=C(O)CCCCC(=O)O [DS-6051b]
inhibition at 0.04 µM (BUB1/BUB3): -1.8% | inhibition at 0.04 µM (TYK2): 29.3% | Peak plasma concentration [1]: around 1500 nM | inhibition at 0.04 µM (TSSK2): 0.00452% | inhibition at 0.04 µM (EPHA2): 18.4% | inhibition at 0.04 µM (MNK1): 3.7% | Tumor volume (average / SE) ([2]; 3 mg/kg po, day 0, N 6): 290 mm3 | Tumor volume (average / SE) ([2]; 3 mg/kg po, day 2, N 6): 459 mm3 | Tumor volume (average / SE) ([2]; 3 mg/kg po, day 4, N 6): 550 mm3 | Tumor volume (average / SE) ([2]; 10 mg/kg po, day 0, N 6): 291 mm3 | Tumor volume (average / SE) ([2]; 10 mg/kg po, day 2, N 6): 341 mm3 | Tumor volume (average / SE) ([2]; 10 mg/kg po, day 4, N 6): 390 mm3 | Tumor volume (average / SE) ([2]; 30 mg/kg po, day 0, N 6): 286 mm3 | Tumor volume (average / SE) ([2]; 30 mg/kg po, day 2, N 6): 189 mm3 | Tumor volume (average / SE) ([2]; 30 mg/kg po, day 4, N 6): 73 mm3 | Tumor volume (average / SE) ([2]; 100 mg/kg po, day 0, N 6): 292 mm3 | Tumor volume (average / SE) ([2]; 100 mg/kg po, day 2, N 6): 111 mm3 | Tumor volume (average / SE) ([2]; 100 mg/kg po, day 4, N 6): 41 mm3 | Dose showing rapid tumor regression ([2]; once daily oral gavage, 4 days): ≥ 30 mg/kg | inhibition at 0.04 µM (AKT2): 2.3% | inhibition at 0.04 µM (MSK1): 13.8% | inhibition at 0.04 µM (HER2): 21.5% | inhibition at 0.04 µM (DDR2): 93.7% | inhibition at 0.04 µM (MNK2): 4.2% | IC50 [3]: 1.8 nM | inhibition at 0.04 µM (CSK): -0.441% | inhibition at 0.04 µM (CK1γ1): 2.4% | inhibition at 0.2 µM (FMS): 32.1% | inhibition at 0.04 µM (RON): 1% | inhibition at 0.04 µM (PKCα): 31.7% | inhibition at 0.04 µM (MAPKAPK2): -10.2% | inhibition at 0.04 µM (EPHA5): 42.3% | inhibition at 0.04 µM (PASK): 6.9% | inhibition at 0.04 µM (Erk1): -0.174% | inhibition at 0.04 µM (EPHB3): 22.5% | inhibition at 0.04 µM (EPHB2): 21.9% | inhibition at 0.04 µM (PGK): 2.5% | inhibition at 0.04 µM (AurA): 8.5% | inhibition at 0.04 µM (PKCι): 15.6% | inhibition at 0.04 µM (BRK): 31.7%
